Read-outs that look alike come from different tables or passages of the source. Where a SMILES comes first, the peptide text is derived from it. Where no end group is shown, it is not given here.
How the values were obtained:
KIX = molecular target: T1, KIX (Mus musculus, UniProt P45481); experiment: KIX binding by isothermal titration calorimetry (ITC); conditions: 30 °C; for N (stoichiometry of binding): pH 7.0, mean ± standard error of triplicate or more; for − TΔS: entropy term upon KIX binding, pH 7.0, ΔS=(ΔH-ΔG)/T, mean ± standard error of triplicate or more
T1 construct: The DNA fragment of KIX (residues 586–672 of mouse CBP); 6xHis-tag with thrombin cleavage site (N); made in house; host or cells: E. coli BL21(DE3)pLysS
Experimental: For the expression of MLL TAD, E. coli BL21(DE3) competent cells were transformed with the plasmid and cultivated at 37 °C in 2 × YT liquid medium supplemented with ampicillin. When an optical density at 600 nm (OD600) of the cell culture reached 0.7–0.8, 1 mM isopropyl β-D-1-thiogalactopyranoside was added to induce protein expression. After 4 h of cultivation, the cells were harvested by centrifugation. The E. coli cell pellet was suspended with buffer HP (50 mM sodium phosphate [pH 7.4], 300 mM NaCl, 10 mM imidazole, and 6 M guanidine hydrochloride). The sonicated lysate was centrifuged at 4 °C, and the supernatant was filtered using a membrane filter and applied to a gravity column (50 mL) containing 5 mL of nickel-nitrilotriacetic acid (Ni–NTA) resin (Qiagen, Hilden, Germany). The column was washed with buffer HP and buffer AP (50 mM sodium phosphate [pH 7.4], 300 mM NaCl, and 10 mM imidazole) to remove impurities. To elute His-tag–GB1–MLL TAD for ITC and SPR measurements, 40 mL of buffer EP (50 mM sodium phosphate [pH 7.4], 300 mM NaCl, and 250 mM imidazole) was added to the column. […] Thus, His-tag–GB1–MLL TAD was used in the ITC measurements, with the exception of the four mutants (I2849L, D2851L, K2855R, and T2857I). To obtain the MLL TAD peptide without His-tag–GB1 for CD measurements, we washed the column, to which the His-tag–GB1–MLL TAD was attached, with buffer TP (50 mM sodium phosphate [pH 7.4] and 300 mM NaCl), added 150 units of thrombin to the column for digestion of the His-tag–GB1, and eluted the MLL TAD peptide with buffer TP. After Ni–NTA column purification, anion exchange chromatography was performed to further purify the aforementioned four mutants without His-tag–GB1 using the AKTAprime plus chromatography system (Cytiva, Marlborough, MA, USA; 10 mM sodium phosphate [pH 6.0] and 0–1 M NaCl). Due to the fact that the CD spectra of the four mutants were unchanged before and after the anion exchange chromatography, we omitted this procedure for other mutants.
Expression and purification of the KIX protein was performed in the same way as MLL, except that E. coli BL21(DE3)pLysS competent cells and 2 × YT liquid medium with ampicillin and chloramphenicol were used. After Ni–NTA column purification, gel filtration chromatography was performed using a Superdex 200 pg column (Cytiva) and the ITC buffer (20 mM Tris–acetate [pH 7.0] and 50 mM NaCl).
ITC measurements were performed using MicroCal iTC200 (Malvern Panalytical Ltd., Malvern, United Kingdom) at 30 °C. Samples were sufficiently dialyzed with the ITC buffer before measurements. The 600 μM MLL solution was titrated into the cell containing 45 µM KIX. The data were analyzed using the Origin 7 software (OriginLab Corp., Northampton, MA, USA; https://www.originlab.com) to obtain the Kd (M), ΔH (kcal/mol), and stoichiometry of binding, N. The ΔG (kcal/mol) and ΔS (kcal/mol/K) were obtained as follows:2 ΔG=-RTln1/Kd 3 ΔS=ΔH-ΔG/T where R is the gas constant, and T is the temperature.

KIX–MLL interaction = conditions: cited from earlier work
Experimental: Previous studies have reported several inhibitors that bind the MLL site of KIX, including isoxazolidine derivatives, which are small molecule compounds that mimic the function of the TADs of transcriptional activators, and natural products such as sekikaic acid and lobaric acid[21],[22]. […] However, the EC50 and IC50 values of these small molecule inhibitors are 10- to 100-fold larger than the Kd for the KIX–MLL interaction (2.02 ± 0.04 μM).

[1] = inhibition of the KIX–MLL interaction

T1 sequence (P45481 586-672): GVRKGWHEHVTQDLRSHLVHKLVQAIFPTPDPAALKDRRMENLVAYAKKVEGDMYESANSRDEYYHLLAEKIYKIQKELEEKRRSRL

Molecule	− TΔS (KIX) [kcal/mol]	also measured
CC[C@H](C)[C@H](NC(=O)[C@H](CC(=O)O)NC(=O)[C@H](CO)NC(=O)[C@@H]1CCCN1C(=O)[C@H](CC(C)C)NC(=O)[C@@H](NC(=O)[C@H](CC(N)=O)NC(=O)CN)[C@@H](C)CC)C(=O)N[C@@H](CCSC)C(=O)N[C@@H](CC(C)C)C(=O)N[C@@H](Cc1ccccc1)C(=O)N[C@H](C(=O)N[C@@H](CC(C)C)C(=O)N[C@@H](CCCCN)C(=O)N[C@@H](CC(N)=O)C(=O)N[C@H](C(=O)N1CCC[C@H]1C(=O)N[C@@H](CO)C(=O)N[C@@H](CCSC)C(=O)N[C@@H](CCC(N)=O)C(=O)N[C@@H](C)C(=O)N[C@@H](CC(C)C)C(=O)NCC(=O)N[C@@H](CCC(=O)O)C(=O)N[C@@H](CO)C(=O)N1CCC[C@H]1C(=O)N[C@@H](CCC(=O)O)C(=O)N[C@@H](CO)C(=O)N[C@@H](Cc1ccc(O)cc1)C(=O)O)[C@@H](C)O)C(C)C [D2851L] (H-GNILPSDIMLFVLKNTPSMQALGESPESY-OH; N-terminus and C-terminus assumed)	1.4 ± 0.4	N (stoichiometry of binding) (KIX): 1.020 ± 0.006
CC[C@H](C)[C@H](NC(=O)[C@H](CC(N)=O)NC(=O)CN)C(=O)N[C@@H](CC(C)C)C(=O)N1CCC[C@H]1C(=O)N[C@@H](CO)C(=O)N[C@@H](CC(=O)O)C(=O)N[C@@H](CC(C)C)C(=O)N[C@@H](CCSC)C(=O)N[C@@H](CC(=O)O)C(=O)N[C@@H](Cc1ccccc1)C(=O)N[C@H](C(=O)N[C@@H](CC(C)C)C(=O)N[C@@H](CCCCN)C(=O)N[C@@H](CC(N)=O)C(=O)N[C@H](C(=O)N1CCC[C@H]1C(=O)N[C@@H](CO)C(=O)N[C@@H](CCSC)C(=O)N[C@@H](CCC(N)=O)C(=O)N[C@@H](C)C(=O)N[C@@H](CC(C)C)C(=O)NCC(=O)N[C@@H](CCC(=O)O)C(=O)N[C@@H](CO)C(=O)N1CCC[C@H]1C(=O)N[C@@H](CCC(=O)O)C(=O)N[C@@H](CO)C(=O)N[C@@H](Cc1ccc(O)cc1)C(=O)O)[C@@H](C)O)C(C)C [I2849L] (H-GNILPSDLMDFVLKNTPSMQALGESPESY-OH; N-terminus and C-terminus assumed)	4.6 ± 0.2	N (stoichiometry of binding) (KIX): 0.947 ± 0.008
CC[C@H](C)[C@H](NC(=O)[C@H](CC(=O)O)NC(=O)[C@H](CO)NC(=O)[C@@H]1CCCN1C(=O)[C@H](CC(C)C)NC(=O)[C@@H](NC(=O)[C@H](CC(N)=O)NC(=O)CN)[C@@H](C)CC)C(=O)N[C@@H](CCSC)C(=O)N[C@@H](CC(=O)O)C(=O)N[C@@H](Cc1ccccc1)C(=O)N[C@H](C(=O)N[C@@H](CC(C)C)C(=O)N[C@@H](CCCNC(=N)N)C(=O)N[C@@H](CC(N)=O)C(=O)N[C@H](C(=O)N1CCC[C@H]1C(=O)N[C@@H](CO)C(=O)N[C@@H](CCSC)C(=O)N[C@@H](CCC(N)=O)C(=O)N[C@@H](C)C(=O)N[C@@H](CC(C)C)C(=O)NCC(=O)N[C@@H](CCC(=O)O)C(=O)N[C@@H](CO)C(=O)N1CCC[C@H]1C(=O)N[C@@H](CCC(=O)O)C(=O)N[C@@H](CO)C(=O)N[C@@H](Cc1ccc(O)cc1)C(=O)O)[C@@H](C)O)C(C)C [K2855R] (H-GNILPSDIMDFVLRNTPSMQALGESPESY-OH; N-terminus and C-terminus assumed)	5.7 ± 0.4	N (stoichiometry of binding) (KIX): 0.94 ± 0.02
O=C(Nc1ccc(Cl)cc1)c1cc2ccccc2cc1OP(=O)(O)O [KG-501]		IC50 (KIX–MLL interaction; small molecule inhibitor of the KIX–MLL interaction): 200 ± 10 µM
CC[C@H](C)[C@H](NC(=O)[C@H](CC(=O)O)NC(=O)[C@H](CO)NC(=O)[C@@H]1CCCN1C(=O)[C@H](CC(C)C)NC(=O)[C@@H](NC(=O)[C@H](CC(N)=O)NC(=O)CN)[C@@H](C)CC)C(=O)N[C@@H](CCSC)C(=O)N[C@@H](CC(=O)O)C(=O)N[C@@H](Cc1ccccc1)C(=O)N[C@H](C(=O)N[C@@H](CC(C)C)C(=O)N[C@@H](CCCCN)C(=O)N[C@@H](CC(N)=O)C(=O)N[C@H](C(=O)N1CCC[C@H]1C(=O)N[C@@H](CO)C(=O)N[C@@H](CCSC)C(=O)N[C@@H](CCC(N)=O)C(=O)N[C@@H](C)C(=O)N[C@@H](CC(C)C)C(=O)NCC(=O)N[C@@H](CCC(=O)O)C(=O)N[C@@H](CO)C(=O)N1CCC[C@H]1C(=O)N[C@@H](CCC(=O)O)C(=O)N[C@@H](CO)C(=O)N[C@@H](Cc1ccc(O)cc1)C(=O)O)[C@@H](C)CC)C(C)C [T2857I] (H-GNILPSDIMDFVLKNIPSMQALGESPESY-OH; N-terminus and C-terminus assumed)	2.21 ± 0.08	N (stoichiometry of binding) (KIX): 1.043 ± 0.003
CCCCCc1c2c(cc(O)c1C(=O)O)OC(=O)c1c(cc(OC)cc1C(=O)CCCC)O2 [lobaric acid]		IC50 (KIX–MLL interaction; [1]): 17 µM
CCCc1cc(OC)cc(O)c1C(=O)Oc1c(OC)cc(CCC)c(C(=O)O)c1O [sekikaic acid]		IC50 (KIX–MLL interaction; [1]): 34 µM
K2855R / T2857L: K2855R/T2857L double mutant of the MLL TAD peptide ({His6-GB1}-GNILPSDIMDFVLRNLPSMQALGESPESY)	1.5 ± 0.2	
K2855R / T2857W: K2855R/T2857W double mutant of the MLL TAD peptide ({His6-GB1}-GNILPSDIMDFVLRNWPSMQALGESPESY)	3.86 ± 0.05	
T2857A: T2857A mutant of the MLL TAD peptide (GNILPSDIMDFVLKNAPSMQALGESPESY; left off: His6, N-terminal, cleaved | GB1 (B1 domain of Streptococcal protein G), N-terminal, cleaved)	4.0 ± 0.2	
T2857F: T2857F mutant of the MLL TAD peptide (GNILPSDIMDFVLKNFPSMQALGESPESY; left off: His6, N-terminal, cleaved | GB1 (B1 domain of Streptococcal protein G), N-terminal, cleaved)	3.2 ± 0.3	
T2857K: T2857K mutant of the MLL TAD peptide ({His6-GB1}-GNILPSDIMDFVLKNKPSMQALGESPESY)	4.4 ± 0.2	
T2857L: T2857L mutant of the MLL TAD peptide ({His6-GB1}-GNILPSDIMDFVLKNLPSMQALGESPESY)	2.6 ± 0.1	
T2857R: T2857R mutant of the MLL TAD peptide ({His6-GB1}-GNILPSDIMDFVLKNRPSMQALGESPESY)	4.9 ± 0.3	
T2857W: T2857W mutant of the MLL TAD peptide, highest KIX affinity ({His6-GB1}-GNILPSDIMDFVLKNWPSMQALGESPESY)	4.4 ± 0.1	
T2857Y: T2857Y mutant of the MLL TAD peptide ({His6-GB1}-GNILPSDIMDFVLKNYPSMQALGESPESY)	4.5 ± 0.2	
